Laboratory results: patent US6329390A, “5-Bicycloindole compounds” (NPS Allelix Corp., priority 1998, dated 2001)

Experiments:
5-HT1B receptor = target: T1, 5-HT1B receptor (Homo sapiens, UniProt P28222); assay: Binding affinity, inhibition of 3H-serotonin binding to membranes of cells expressing the 5-HT1B receptor; details: for inhibition at 0.1 µM: 100 nM of test compound, 3H-serotonin 2.5 nM, 60 minute incubation at 22° C., read-out: affinity for the 5-HT1B receptor (percent inhibition of radioligand binding); for binding at the 5-HT1B receptor (in words): at a concentration of 100 nM
T1 construct: expressed in transfected cells
Procedure: (§1) Selected compounds of the previous examples, as well as reference compounds were evaluated for binding affinity using cell types receptive specifically to 5-HT1D and 5-HT1B ligands. The assay protocol generally entailed the incubation of membranes prepared f cells expressing the 5-HT1D or 5-HT1B subtype of 5-HT receptors with ^3 H serotonin (1 nM for 5-HT1 D and 2.5 nM for 5-HT1B). Specific concentrations of the test compound were incubated with the radioligand and the membrane homogenates prepared from the recombinant cells. After a 60 minute incubation at 22° C., the incubation was terminated by vacuum filtration. The filters were washed with buffer and counted for radioactivity using liquid scintillation spectroscopy. The affinity of the test compound for the 5-HT1D receptor is expressed as the amount (in percent) of binding of the radioligand that is inhibited in the presence of 100 nM of test compound. A greater percent inhibition indicates greater affinity for the 5-HT1D receptor.

5-HT1D receptor = target: T2, 5-HT1D receptor (Homo sapiens, UniProt P28221); assay: Binding affinity, inhibition of 3H-serotonin binding to membranes of cells expressing the 5-HT1D receptor; details: for binding at the 5-HT1D receptor (in words): at a concentration of 100 nM; for inhibition at 0.1 µM: 100 nM of test compound, 3H-serotonin 1 nM, 60 minute incubation at 22° C., read-out: affinity for the 5-HT1D receptor: amount (in percent) of binding of the radioligand that is inhibited
T2 construct: expressed in transfected cells
Procedure: as §1

T2 sequence (P28221 whole entry): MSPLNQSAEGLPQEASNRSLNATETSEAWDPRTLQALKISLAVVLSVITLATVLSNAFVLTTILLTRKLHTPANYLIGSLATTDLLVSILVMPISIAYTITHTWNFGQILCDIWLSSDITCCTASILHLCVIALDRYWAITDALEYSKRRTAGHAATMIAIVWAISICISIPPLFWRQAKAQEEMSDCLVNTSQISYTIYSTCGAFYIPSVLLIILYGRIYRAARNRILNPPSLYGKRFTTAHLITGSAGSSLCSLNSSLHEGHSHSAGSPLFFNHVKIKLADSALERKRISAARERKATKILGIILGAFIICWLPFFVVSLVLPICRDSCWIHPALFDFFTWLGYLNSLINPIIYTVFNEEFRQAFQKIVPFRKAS
T1 sequence (P28222 whole entry): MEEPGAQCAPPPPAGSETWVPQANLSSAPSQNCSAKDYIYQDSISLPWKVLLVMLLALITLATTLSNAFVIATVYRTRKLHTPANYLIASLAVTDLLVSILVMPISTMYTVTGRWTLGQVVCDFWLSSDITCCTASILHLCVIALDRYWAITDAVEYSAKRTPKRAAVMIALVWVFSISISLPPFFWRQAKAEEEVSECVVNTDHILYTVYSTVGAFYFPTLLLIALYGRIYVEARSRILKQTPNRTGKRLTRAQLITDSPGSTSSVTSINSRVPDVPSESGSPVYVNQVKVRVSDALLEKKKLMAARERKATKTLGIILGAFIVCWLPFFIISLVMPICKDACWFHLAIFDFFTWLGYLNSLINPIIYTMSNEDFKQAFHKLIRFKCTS

Compound: CN1CCC[C@@H]1Cc1c[nH]c2ccc(C3(O)CCN4CCCC4C3)cc12 (stereo partly drawn) [Example 6b, 5-[(7-R,S)(8a-R,S)-7-Hydroxyoctahydroindolizin-7-yl]-3-{[(2R)-N-methylpyrrolidin-2-yl]methyl}-1H-indole]
- inhibition at 0.1 µM (5-HT1B receptor): < 30%

Compound: CN1CCC[C@H]1Cc1c[nH]c2ccc(C3CCN4CCCC4C3)cc12 (single isomer, unassigned) [Example 8a, 5-[(7R or 7S)(8a-R,S)-Octahydroindolizin-7-yl]-3-{[(2S)-N-methylpyrrolidin-2-yl]methyl}-1 H-indole]
- binding at the 5-HT1B receptor (in words) (5-HT1B receptor): little, if any, binding
- binding at the 5-HT1D receptor (in words) (5-HT1D receptor): little, if any, binding

Compound: CN1CCC[C@H]1Cc1c[nH]c2ccc(C3=CC4CCCN4CC3)cc12 (stereo partly drawn) [Example 7a, 5-[(8a-R,S)-1,2,3,5,6,8a-Hexahydroindolizin-7-yl]-3-{[(2S)-N-methylpyrrolidin-2-yl]methyl}-1 H-indole]
- binding at the 5-HT1B receptor (in words) (5-HT1B receptor): little, if any, binding
- binding at the 5-HT1D receptor (in words) (5-HT1D receptor): little, if any, binding

Compound: CN(C)CCc1c[nH]c2ccc(C3(O)CCN4CCCC4C3)cc12 (single isomer, unassigned) [Example 6c, 5-[(7-R or S)(8a-R,S)-7-Hydroxyoctahydroindolizin-7-yl]-3-[2-(N,N-dimethylamino)ethyl]indole]
- inhibition at 0.1 µM (5-HT1D receptor): > 90%

Compound: CN1CCC[C@H]1Cc1c[nH]c2ccc(C3=CCN4CCCC4C3)cc12 (stereo partly drawn) [Example 7b, 5-[(8a-R,S)-1,2,3,5,8,8a-Hexahydroindolizin-7-yl]-3-{[(2S)-N-methylpyrrolidin-2-yl]methyl}-1 H-indole]
- binding at the 5-HT1B receptor (in words) (5-HT1B receptor): little, if any, binding
- binding at the 5-HT1D receptor (in words) (5-HT1D receptor): little, if any, binding

Compound: CN1CCC[C@H]1Cc1c[nH]c2ccc(C3CCN4CCCC4C3)cc12 (single isomer, unassigned) [Example 8b, 5-[(7R or 7S)(8a-R,S)-Octahydroindolizin-7-yl] 3-{[(2S)-N-methylpyrrolidin-2-yl]methyl}-1 H-indole]
- binding at the 5-HT1B receptor (in words) (5-HT1B receptor): little, if any, binding
- binding at the 5-HT1D receptor (in words) (5-HT1D receptor): little, if any, binding

Compound: CN1CCC[C@@H]1Cc1c[nH]c2ccc(C3=CCN4CCCC4C3)cc12 (stereo partly drawn) [Example 7d, 5-[(8a-R,S)-1,2,3,5,8,8a-Hexahydroindolizin-7-yl]-3-{[(2R)-N-methylpyrrolidin-2-yl]methyl}-1H-indole]
- inhibition at 0.1 µM (5-HT1D receptor): > 90%

Compound: CN1CCC[C@@H]1Cc1c[nH]c2ccc(C3CCN4CCCC4C3)cc12 (stereo partly drawn) [Example 8c, 5-[(7-R,S)(8a-R,S)-Octahydroindolizin-7-yl]- -{[(2R)-N-methylpyrrolidin-2-yl]methyl}-1H-indole]
- inhibition at 0.1 µM (5-HT1B receptor): < 30%

Compound: CN1CCC[C@H]1Cc1c[nH]c2ccc(C3(O)CCN4CCCC4C3)cc12 (stereo partly drawn) [Example 6a, 5-[(7-R,S)(8a-R,S)-7-Hydroxyoctahydroindolizin-7-yI]-3-{[(2S)-N-methylpyrrolidin-2-yl]methyl}-1 H-indole]
- binding at the 5-HT1B receptor (in words) (5-HT1B receptor): little, if any, binding
- binding at the 5-HT1D receptor (in words) (5-HT1D receptor): little, if any, binding
